From ChEMBL document CHEMBL1131932, “Simplification of adenophostin A defines a minimal structure for potent glucopyranoside-based mimics of D-myo-inositol 1,4,5-trisphosphate” (Bioorg Med Chem Lett, 1999) come the findings set out here.

The experiment is filed under the species Rattus norvegicus. Put plainly: Effect on [Ca2+] efflux in rat hepatocytes. The experiment is classed as functional. As to conditions: Hepatocyte.

With `O=P(O)(O)O[C@@H]1[C@H](O)[C@@H](O[C@@H]2COC[C@@H]2OP(=O)(O)O)O[C@@H](CO)[C@H]1OP(=O)(O)O`, a half-maximal effect (EC50) was put at 0.194 µM. `O=P(O)(O)O[C@@H]1[C@H](O)[C@H](O)[C@@H](OP(=O)(O)O)[C@H](OP(=O)(O)O)[C@H]1O` [INS(1,4,5)P3] displayed an EC50 of 0.329 µM.

The EC50 is the concentration giving half of the maximal effect. Read a low EC50 as greater potency.
